# Source: paper PMC11513854, “De novo GTP synthesis is a metabolic vulnerability for the interception of brain metastases” (Cell Reports Medicine, 2024)
# Experiments:
# [1] = system: primary CRUK0748 lung tumor cells; assay: Pre-treatment model, intrathoracic engraftment of primary lung tumor cells; type: in vivo, mice; details: cells pre-treated in vitro
# Experimental: Mice injected with MPA-treated cells also experienced a significant increase in median survival time of 6 days compared to the mice injected with vehicle-treated cells (Figure 3H).
# BMICs were dissociated into single cell suspensions and resuspended in phosphate buffered saline (PBS, Wisent Bio) with 2 mM EDTA. Cells were stained with APC-conjugated anti-human TRA-1-85 (CD147; Cat # 130-128-900, Miltenyi Biotec) and incubated for 15 min at room temperature. The viability dye 7-Aminoactinomycin D (7-AAD; Cat # 00-6993-50, eBioscience) was used to exclude dead cells; incubation with 7-AAD allows for penetration of compromised membranes and binding to DNA.[74] Live cells were analyzed using Summit 5.4 software on MoFlo XDP cell sorter (Beckman Coulter) to confirm human BMIC metastasis to the brain.
# [2] = system: patient-derived BMICs; assay: Migration (wound healing) assay; type: cell-based, human; details: IC80
# Experimental: Cells were plated at a density of 15,000 to 25,000 cells (depending upon the cell line) per 70 μL media supplemented with 10% FBS into two separate wells of a bi-silicon structure within a 48-well plate. The cells were allowed to adhere for 24 h at 37C within a humidified atmosphere of 5% CO2 to form a monolayer of cells. After 24 h the silicon inserts were detached from the 48-well plate, leaving behind two monolayers of cells that are separated by an empty ‘wound’ and enabling of cell migration into the exclusion zone. […] The plate was inserted into the Incucyte in vitro imaging system where the ‘wound’ was imaged periodically over time. The Incucyte scan type chosen was 300ms adherent cell-by-cell alongside phase and green imaging channels within a 10× objective. The images were uploaded to ImageJ where the wound area was calculated to determine the wound coverage percentage.
# [3] = carboxylic acid functionality; no measurement described; cited from earlier work
# [4] = system: melanoma-BM; assay: Pre-treatment melanoma-BM PDX model; type: in vivo, mice; details: pre-treated BMICs
# Description: We decided to focus primarily on lung-BM for our in vivo experiments because they account for over 50% of all BM cases. […] This phenotype was also recapitulated in a melanoma-BM PDX model (Figures S2A and S2B).
# Fig S2. PDX m odels m im ic patient data, related to Figure 3. a, Representative IVIS bioluminescence images of […]
# imaging system. Comparisons were made via a two-tailed unpaired t-test and data are presented as mean ± SED from 4-5 technical replicates. […]
# following intracranial engraftment of patient-der ived BMICs. Comparisons were made via a Log-rank (Mantel-Cox) test, P value is indicated. c, CRUK0748, a patient- derived lung tumor cell line that metastasized to the brain of the patient it was retrieved from, was confirmed to metastasize to the brains of mice in our animal models following intrathoracic injection. CRUK0733, a patient-derived lung tumor cell line that has not metastasized to the brain of […]
# anti-proliferative effect on BMICs isolated from the brains of mice following CRUK0748 metastasis to the brain.
# (1 picture or pasted object on this page, not shown here)
# [5] = read-out: clinically relevant plasma Cmax concentration; cited from earlier work
# [6] = system: CRUK0748-BM; assay: Dose-response assay on CRUK0748-BM line; type: cell-based, human
# Description: To obtain a clinically relevant correlate to the data aforementioned, we acquired two patient-derived lung adenocarcinoma samples: one that was derived from a patient who developed BM following their primary lung tumor diagnosis (CRUK0748), and one that was derived from a patient who, to-date, has not developed BM (CRUK0733). BM-initiating capacity was confirmed in our PDX models (Figure S1C). We harvested the tagged CRUK0748 cells from the brains of mice and cultured them in stem cell-enrichment media conditions to derive a CRUK0748-BM line.
# (§1) Dose-response assays were conducted using the same protocol apart from drugs being plated using 2-fold serial dilutions (20 μM - 39 nM) as previously described.[66] The half maximal inhibitory concentration (IC50) is determined by plotting percent cell viability by the logarithmic concentration of drug. IC80 concentrations will be used for subsequent functional assays (cell proliferation, sphere formation), as determined by the following formula: ICF=100−F/F^1/H×IC50 where F = fraction of maximal response and H = hill slope.
# [7] = system: patient-derived BMIC lines from lung-, breast-, and melanoma-BM; assay: Dose-response curves of multiple BM lines; type: cell-based, human; details: 72-h treatment; below plasma Cmax concentration of 10 μM
# Description: (§2) PrestoBlue readout is normalized to vehicle-treated cells. Data are presented as mean ± SD from 4 technical replicates. (C) Assessment of cell viability of patient-derived BMICs treated with MPA or its vehicle. PrestoBlue readout is normalized to vehicle-treated cells, p < 0.0001. […] Sphere count normalized to vehicle-treated cells, p < 0.0001. (F and G) Percent wound closure of DMSO control vs. MPA-treated cells expressed as an average of replicates (n = 3) and images are taken at 10× magnification. Wound closure (represented by dotted white line) is measured using ImageJ on Incucyte-derived images, p values are indicated. Scale bars are 400 μm. See also Videos S1, S2, S3, and S4. Comparisons of cell viability, sphere formation, and wound closure were made via a two-tailed unpaired t test and data are presented as mean ± SD from 3 to 4 technical replicates. […]
# as §1
# [8] = system: patient-derived BMICs; assay: Cell proliferation assay over time, PrestoBlue; type: cell-based, human; details: IC80, PrestoBlue normalized to vehicle
# Experimental: Cell proliferation assays were conducted using the same protocol, except for drugs being plated at their IC80 for a four-day incubation period. All results were illustrated and analyzed for significance using GraphPad Prism 8 software.
# [9] = system: normal brain cells; assay: Dose-response curves of control normal brain cells; type: cell-based, human; details: 72-h treatment, same concentrations (below 10 μM)
# Description: as §2, §1
compound,measurement,setting,value
"COc1c(C)c2c(c(O)c1C/C=C(\C)CCC(=O)O)C(=O)OC2 [MPA, Mycophenolic acid]",TRA-1-85-positive human cells detected in brains,"[1]; humane endpoint, flow cytometry, vs vehicle",significantly fewer
same,increase in median survival time,"[1]; intrathoracic injection, vs vehicle-treated cells",6 days
same,migration of patient-derived BMICs,[2],inhibits the migration
same,pKa,[3],~5
same,brain tumor burden and survival phenotype,[4],recapitulated
same,Cmax,[5],10 µM
same,"BMIC proliferation, dose-response",[6],inhibits BMIC proliferation
same,anti-BMIC activity against multiple BMIC lines,[7],relatively high anti-BMIC activity
same,BMIC proliferation over time,[8],inhibits BMIC proliferation over time
same,toxicity to normal brain cells,[9],nontoxic
